Consider four compounds from US6809065B2, “Herbicide containing substituted pyrazole derivative as active ingredient” (SDS Biotech K.K., priority 2001, dated 2004).

In data set [1] the test system is Digitaria adscendens. The data set can be described thus: Upland soil treatment (Test Example 2). It is filed as in vivo. As to conditions: soil surface treatment next day after sowing, wettable powder, 1 kg active ingredient per hectare, evaluated 21st day after application. The gist of the method:
(§1)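 Upland soil in pots was sown with weed and crop seeds, covered with about 1 cm soil, and next day sprayed on the surface with wettable-powder formulation at 1 kg active ingredient per hectare. Effects were scored by index on day 21; higher index means stronger weed control, lower index means better crop safety.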

Data set [2] deals with Setaria viridis. The data set is described as follows: Upland soil treatment (Test Example 2). The format is in vivo. Conditions: soil surface treatment next day after sowing, wettable powder, 1 kg active ingredient per hectare, evaluated 21st day after application. In outline: as §1
In data set [3] the test system is Stellaria media. The data set can be described thus: Upland soil treatment (Test Example 2). The format is in vivo. As to conditions: soil surface treatment next day after sowing, wettable powder, 1 kg active ingredient per hectare, evaluated 21st day after application. The gist of the method: as §1
The test system of data set [4] is Chenopodium album. The data set can be described thus: Upland soil treatment (Test Example 2). The format is in vivo. As to conditions: soil surface treatment next day after sowing, wettable powder, 1 kg active ingredient per hectare, evaluated 21st day after application. The gist of the method:
as §1

In data set [5] the test system is wheat (Triticum aestivum). The data set can be described thus: Upland soil treatment (Test Example 2), crop. It is filed as in vivo. Conditions: soil surface treatment next day after sowing, 1 kg active ingredient per hectare, evaluated 21st day, lower index = higher safety. The gist of the method: as §1
In data set [6] the test system is soybean (Glycine max). The data set is described as follows: Upland soil treatment (Test Example 2), crop. Conditions: soil surface treatment next day after sowing, 1 kg active ingredient per hectare, evaluated 21st day, lower index = higher safety. It is filed as in vivo. The gist of the method:
as §1

Data set [7] concerns rice (Oryza sative, variety: Koshihikari). The data set can be described thus: Paddy field treatment (Test Example 3), crop. The format is in vivo, Oryza sativa. Conditions: transplanted rice two-leaf period, water surface treatment 10th day after transplantation, 1 kg active ingredient per hectare, evaluated 21st day, lower index = higher safety. The gist of the method:
(§2)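 Paddy soil in pots was puddled and flooded to 4 cm, weeds were sown, and two-leaf Koshihikari rice was transplanted at 3 cm depth. Ten days after transplanting, wettable powder was applied onto the water surface at 1 kg active ingredient per hectare. Herbicidal effect was index-scored 21 days later.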

In data set [8] the test system is Digitaria adscendens. The data set is described as follows: Upland field foliage treatment (Test Example 1). It is filed as in vivo. Conditions: foliage treatment 14th day after sowing, wettable powder, 1 kg active ingredient per hectare, evaluated 21st day after application. In outline:
(§3)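 Foliar spray, 1 kg a.i./ha, wettable powder in water, applied 14 d post-sowing; seeds covered by ~1 cm upland soil. Index scoring at 21 d. Higher index = stronger weed control; for crops, lower index = greater safety.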

The subject of data set [9] is Setaria viridis. The data set is described as follows: Upland field foliage treatment (Test Example 1). It is filed as in vivo. Conditions: foliage treatment 14th day after sowing, wettable powder, 1 kg active ingredient per hectare, evaluated 21st day after application. The gist of the method: as §3
Data set [10] concerns Stellaria media. The data set is described as follows: Upland field foliage treatment (Test Example 1). It is filed as in vivo. As to conditions: foliage treatment 14th day after sowing, wettable powder, 1 kg active ingredient per hectare, evaluated 21st day after application. The gist of the method: as §3
Data set [11] concerns Chenopodium album. The data set is described as follows: Upland field foliage treatment (Test Example 1). As to conditions: foliage treatment 14th day after sowing, wettable powder, 1 kg active ingredient per hectare, evaluated 21st day after application. The format is in vivo. The gist of the method:
as §3

In data set [12] the test system is wheat (Triticum aestivum). The data set can be described thus: Upland field foliage treatment (Test Example 1), crop. The format is in vivo. Conditions: foliage treatment 14th day after sowing, 1 kg active ingredient per hectare, evaluated 21st day, lower index = higher safety. In outline:
as §3

In data set [13] the test system is soybean (Glycine max). The data set is described as above. It is filed as in vivo. As to conditions: foliage treatment 14th day after sowing, 1 kg active ingredient per hectare, evaluated 21st day, lower index = higher safety. The gist of the method:
as §3

The subject of a further data set is Echinochloa spp. The data set is described as follows: Paddy field treatment (Test Example 3). It is filed as in vivo, Echinochloa crusgalli. As to conditions: paddy pot, submerged 4 cm, dropped on water surface 10th day after transplantation, 1 kg active ingredient per hectare, evaluated 21st day. The gist of the method:
as §2

Another data set relates to Monochoria vaginalis. The data set can be described thus: Paddy field treatment (Test Example 3). The format is in vivo. Conditions: paddy pot, submerged 4 cm, dropped on water surface 10th day after transplantation, 1 kg active ingredient per hectare, evaluated 21st day. In outline:
as §2

Another data set concerns Scirpus juncoides. The data set can be described thus: Paddy field treatment (Test Example 3). The format is in vivo. Conditions: paddy pot, submerged 4 cm, dropped on water surface 10th day after transplantation, 1 kg active ingredient per hectare, evaluated 21st day. The gist of the method:
as §2

The test system of another data set is Ammannia multiflora. The data set can be described thus: Paddy field treatment (Test Example 3). The format is in vivo. As to conditions: paddy pot, submerged 4 cm, dropped on water surface 10th day after transplantation, 1 kg active ingredient per hectare, evaluated 21st day. The gist of the method:
as §2

Molecules are shown by their SMILES.

Turning to `COC=C(Cn1nc(-c2ccccc2)cc1SC)C(=O)OC` [Compound 37], the “Herbicidal activity Digitaria adscendens” value in the data set on Digitaria adscendens [1] was 5 (herbicidal effect of not less than 90% by weight); with Digitaria adscendens [8] it was 4 (herbicidal effect of not less than 70% by weight and less than 90% by weight). The “Herbicidal activity Setaria viridis” value in the data set on Setaria viridis [2] was 5 (herbicidal effect of not less than 90% by weight); with Setaria viridis [9] it was 4 (herbicidal effect of not less than 70% by weight and less than 90% by weight). The “Herbicidal activity Stellaria media” value in the data set on Stellaria media [3] and with Stellaria media [10] was 5 (herbicidal effect of not less than 90% by weight) in each case. The “Herbicidal activity Chenopodium album” value was 4 (herbicidal effect of not less than 70% by weight and less than 90% by weight) with Chenopodium album [4]; 5 (herbicidal effect of not less than 90% by weight) in the data set with Chenopodium album [11]. For the same compound, the “Herbicidal activity Triticum aestivum” value in data set [5] is 0 (herbicidal effect of not less than 0% by weight and less than 10% by weight); in data set [12], 0 (herbicidal effect of not less than 0% by weight and less than 10% by weight). The “Herbicidal activity Glycine max” value in the data set on soybean (Glycine max) [6] is 0 (herbicidal effect of not less than 0% by weight and less than 10% by weight); in the data set with soybean (Glycine max) [13] it was 0 (herbicidal effect of not less than 0% by weight and less than 10% by weight). For the same compound, the “Herbicidal activity Oryza sativa” value in [7] is 0 (herbicidal effect of not less than 0% by weight and less than 10% by weight). Besides, the “Herbicidal activity Echinochloa spp.” value in the data set with Echinochloa spp. is 3 (herbicidal effect of not less than 50% by weight and less than 70% by weight). The “Herbicidal activity Monochoria vaginalis” value in the data set on Monochoria vaginalis is 3 (herbicidal effect of not less than 50% by weight and less than 70% by weight). Also, the “Herbicidal activity Scirpus juncoides” value with Scirpus juncoides was 3 (herbicidal effect of not less than 50% by weight and less than 70% by weight). Also, the “Herbicidal activity Ammannia multiflora” value in the data set on Ammannia multiflora was 3 (herbicidal effect of not less than 50% by weight and less than 70% by weight).
With `COC=C(Cn1nc(-c2cccc(Cl)c2)cc1SC)C(=O)OC` [Compound 38], the “Herbicidal activity Digitaria adscendens” value with Digitaria adscendens [1] is 4 (herbicidal effect of not less than 70% by weight and less than 90% by weight); in the data set with Digitaria adscendens [8], 4 (herbicidal effect of not less than 70% by weight and less than 90% by weight). In addition, the “Herbicidal activity Setaria viridis” value in the data set on Setaria viridis [2] was 4 (herbicidal effect of not less than 70% by weight and less than 90% by weight); with Setaria viridis [9] it was 4 (herbicidal effect of not less than 70% by weight and less than 90% by weight). The “Herbicidal activity Stellaria media” value was 4 (herbicidal effect of not less than 70% by weight and less than 90% by weight) in the data set on Stellaria media [3]; 5 (herbicidal effect of not less than 90% by weight) with Stellaria media [10]. The “Herbicidal activity Chenopodium album” value with Chenopodium album [4] is 4 (herbicidal effect of not less than 70% by weight and less than 90% by weight); in the data set on Chenopodium album [11], 5 (herbicidal effect of not less than 90% by weight). The “Herbicidal activity Triticum aestivum” value in data set [5] is 0 (herbicidal effect of not less than 0% by weight and less than 10% by weight); in data set [12], 0 (herbicidal effect of not less than 0% by weight and less than 10% by weight). The “Herbicidal activity Glycine max” value was 0 (herbicidal effect of not less than 0% by weight and less than 10% by weight) with soybean (Glycine max) [6]; 1 (herbicidal effect of not less than 10% by weight and less than 30% by weight) in the data set with soybean (Glycine max) [13]. Moreover, in data set [7], the “Herbicidal activity Oryza sativa” value is 0 (herbicidal effect of not less than 0% by weight and less than 10% by weight). In the data set with Echinochloa spp., the “Herbicidal activity Echinochloa spp.” value is 3 (herbicidal effect of not less than 50% by weight and less than 70% by weight). The “Herbicidal activity Monochoria vaginalis” value in the data set with Monochoria vaginalis is 4 (herbicidal effect of not less than 70% by weight and less than 90% by weight). Moreover, the “Herbicidal activity Scirpus juncoides” value in the data set with Scirpus juncoides is 3 (herbicidal effect of not less than 50% by weight and less than 70% by weight). Further, the “Herbicidal activity Ammannia multiflora” value in the data set with Ammannia multiflora is 3 (herbicidal effect of not less than 50% by weight and less than 70% by weight).
In the case of `CCc1c(Cl)c(-c2ccccc2)nn1CC(=COC)C(=O)OC` [Compound 39], the “Herbicidal activity Digitaria adscendens” value in the data set on Digitaria adscendens [1] is 4 (herbicidal effect of not less than 70% by weight and less than 90% by weight); with Digitaria adscendens [8], 4 (herbicidal effect of not less than 70% by weight and less than 90% by weight). For the same compound, the “Herbicidal activity Setaria viridis” value in the data set with Setaria viridis [2] was 4 (herbicidal effect of not less than 70% by weight and less than 90% by weight); in the data set with Setaria viridis [9], 4 (herbicidal effect of not less than 70% by weight and less than 90% by weight). Besides, the “Herbicidal activity Stellaria media” value in the data set on Stellaria media [3] was 4 (herbicidal effect of not less than 70% by weight and less than 90% by weight); with Stellaria media [10], 5 (herbicidal effect of not less than 90% by weight). Besides, the “Herbicidal activity Chenopodium album” value in the data set on Chenopodium album [4] is 4 (herbicidal effect of not less than 70% by weight and less than 90% by weight); in the data set on Chenopodium album [11], 5 (herbicidal effect of not less than 90% by weight). Further, the “Herbicidal activity Triticum aestivum” value in [5] is 0 (herbicidal effect of not less than 0% by weight and less than 10% by weight); in [12], 0 (herbicidal effect of not less than 0% by weight and less than 10% by weight). Also, the “Herbicidal activity Glycine max” value with soybean (Glycine max) [6] is 0 (herbicidal effect of not less than 0% by weight and less than 10% by weight); in the data set with soybean (Glycine max) [13] it was 1 (herbicidal effect of not less than 10% by weight and less than 30% by weight). Besides, in data set [7], the “Herbicidal activity Oryza sativa” value was 0 (herbicidal effect of not less than 0% by weight and less than 10% by weight). In the data set on Echinochloa spp., the “Herbicidal activity Echinochloa spp.” value is 4 (herbicidal effect of not less than 70% by weight and less than 90% by weight). For the same compound, in the data set on Monochoria vaginalis, the “Herbicidal activity Monochoria vaginalis” value was 3 (herbicidal effect of not less than 50% by weight and less than 70% by weight). Further, in the data set with Scirpus juncoides, the “Herbicidal activity Scirpus juncoides” value was 4 (herbicidal effect of not less than 70% by weight and less than 90% by weight). Moreover, the “Herbicidal activity Ammannia multiflora” value with Ammannia multiflora was 3 (herbicidal effect of not less than 50% by weight and less than 70% by weight).
Consider `CCCc1c(Cl)c(-c2cccc(Cl)c2)nn1CC(=COC)C(=O)OC` [Compound 40], for which the “Herbicidal activity Digitaria adscendens” value is 4 (herbicidal effect of not less than 70% by weight and less than 90% by weight) with Digitaria adscendens [1]; 4 (herbicidal effect of not less than 70% by weight and less than 90% by weight) in the data set with Digitaria adscendens [8]. Besides, the “Herbicidal activity Setaria viridis” value in the data set with Setaria viridis [2] was 4 (herbicidal effect of not less than 70% by weight and less than 90% by weight); in the data set on Setaria viridis [9], 4 (herbicidal effect of not less than 70% by weight and less than 90% by weight). For the same compound, the “Herbicidal activity Stellaria media” value in the data set with Stellaria media [3] was 4 (herbicidal effect of not less than 70% by weight and less than 90% by weight); with Stellaria media [10], 4 (herbicidal effect of not less than 70% by weight and less than 90% by weight). The “Herbicidal activity Chenopodium album” value is 4 (herbicidal effect of not less than 70% by weight and less than 90% by weight) in the data set with Chenopodium album [4]; 4 (herbicidal effect of not less than 70% by weight and less than 90% by weight) with Chenopodium album [11]. Moreover, the “Herbicidal activity Triticum aestivum” value in data set [5] is 0 (herbicidal effect of not less than 0% by weight and less than 10% by weight); in data set [12] it was 0 (herbicidal effect of not less than 0% by weight and less than 10% by weight). Besides, the “Herbicidal activity Glycine max” value in the data set on soybean (Glycine max) [6] is 0 (herbicidal effect of not less than 0% by weight and less than 10% by weight); in the data set on soybean (Glycine max) [13], 0 (herbicidal effect of not less than 0% by weight and less than 10% by weight). The “Herbicidal activity Oryza sativa” value in data set [7] was 0 (herbicidal effect of not less than 0% by weight and less than 10% by weight). In addition, the “Herbicidal activity Echinochloa spp.” value in the data set on Echinochloa spp. was 3 (herbicidal effect of not less than 50% by weight and less than 70% by weight). Further, the “Herbicidal activity Monochoria vaginalis” value in the data set on Monochoria vaginalis is 3 (herbicidal effect of not less than 50% by weight and less than 70% by weight). Besides, in the data set with Scirpus juncoides, the “Herbicidal activity Scirpus juncoides” value is 3 (herbicidal effect of not less than 50% by weight and less than 70% by weight). The “Herbicidal activity Ammannia multiflora” value in the data set with Ammannia multiflora was 3 (herbicidal effect of not less than 50% by weight and less than 70% by weight).
